Assay in all cases: inhibition of tumour cell growth, NCI panel, 48 h
The test system of experiment [1] is MCF7 breast.
Experiment [2] has as its system MOLT-4 leukemia.
The subject of experiment [3] is NCI/ADR-RES ovarian.
The test system of experiment [4] is MDA-N.
Experiment [5] concerns HOP-92 NSCLC.
In experiment [6] the test system is PC-3 prostate.
For experiment [7], the system named is OVCAR-4 ovarian.
Experiment [8] concerns EKVX NSCLC.
In experiment [9] the test system is SNB-75 CNS.
Experiment [10] deals with A498 renal.
Experiment [11] concerns HCT-15 colon.
Experiment [12] concerns M14 melanoma.
For experiment [13], the system named is RPMI-8226 leukemia.
Experiment [14] has as its system CCRF-CEM leukemia.
Experiment [15] deals with HL-60(TB) leukemia.

TGI data for 16 molecules are collected here from PubChem BioAssay (NCI).

SMILES strings stand for the structures.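 How tested: cells in 96-well plates exposed to compound for 48 hours at five concentrations. At the TGI there is no net growth.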

Consider `COc1ccc(/C=C2/SC(c3c(O)ccc4ccccc34)N(NC(=O)CCCCCCCCC(=O)NN3C(=O)/C(=C\c4ccc(OC)c(OC)c4)SC3c3c(O)ccc4ccccc34)C2=O)cc1OC` (stereo unspecified), for which the TGI is greater than 100 µM in experiment [1]; 2.9 µM in [2]; 32.1 µM in experiment [3]; greater than 100 µM in experiment [4]; 23.3 µM in experiment [5]; greater than 100 µM in experiment [6]. Besides, the TGI in experiment [7] is greater than 100 µM; in [8], greater than 100 µM; in [9], greater than 100 µM; in experiment [10], 49.3 µM; in experiment [11] it was greater than 100 µM.
For `CCNC1=C(NC(=O)CCl)C(=O)c2ccccc2C1=O`, the TGI amounted to 47.4 µM in [1]; 55.5 µM in experiment [2]; 44 µM in experiment [3]; 42.6 µM in [12]; 29.2 µM in experiment [4]; 36.2 µM in experiment [5]. Further, the TGI in experiment [6] is 30.3 µM; in experiment [7] it was 30.7 µM; in experiment [8], 29.6 µM; in experiment [9], greater than 10 µM; in [13], greater than 100 µM; in [11], 33.6 µM. Moreover, the TGI in experiment [14] was found to be 58.1 µM; in experiment [15], 88.9 µM.
In the case of `NS(=O)(=O)c1nnc(NC(=O)/C=C/C(=O)O)s1`, the TGI in experiment [1], in [2], in experiment [3], in experiment [12], in [4] and in [5] was greater than 100 µM in each case. Moreover, the TGI in experiment [7], in experiment [8], in [10], in experiment [13], in experiment [11] and in experiment [15] was greater than 100 µM in each case.
As for `CC1=CC(=O)/C(=C/N2C(=O)CNC2=S)C(=O)O1`, the TGI in experiment [1], in experiment [2], in [3], in [12], in experiment [4] and in experiment [5] was greater than 100 µM in each case. Further, the TGI in experiment [6], in experiment [7], in experiment [8], in experiment [9], in experiment [11] and in [15] was greater than 100 µM each time.
Consider `CC1(C)/C(=N\Nc2ccc([N+](=O)[O-])cc2[N+](=O)[O-])C2CCC1C2` (stereo unspecified), for which the TGI in [1], in experiment [2], in experiment [3], in experiment [12], in [4] and in [5] was greater than 100 µM in each case. Besides, the TGI in [6] was greater than 100 µM; in [7] it was greater than 100 µM; in [8] it was greater than 100 µM; in experiment [9], 65.8 µM; in experiment [13], greater than 100 µM; in [11] it was greater than 100 µM. The molecule further yielded a TGI in experiment [15] greater than 100 µM.
`O=C1NC(N2CCCCC2)=N/C1=C\c1ccccc1`: the TGI in [1], in [2], in experiment [3], in experiment [12], in experiment [4] and in experiment [5] was greater than 100 µM each time. The TGI in [6], in experiment [7], in experiment [8], in [9], in [13] and in experiment [11] was greater than 100 µM in each case. Besides, the TGI in [14] and in experiment [15] was greater than 100 µM each time.
Regarding `CCCCSC1=N/C(=C\c2ccc(N(C)C)cc2)C(Cl)=N1`, the TGI in experiment [1], in [2], in experiment [3], in [12], in experiment [4] and in [5] was greater than 100 µM in each case. Besides, the TGI in experiment [6], in experiment [7], in [8], in experiment [9], in experiment [10] and in experiment [13] was greater than 100 µM each time. In experiment [11], this molecule gave a TGI greater than 100 µM.
For the molecule `N[C@@H](Cc1ccc2oc3cc(=O)c4ccccc4c-3nc2c1)C(=O)O`, the TGI is 6.79 µM in experiment [1]; greater than 100 µM in experiment [2]; greater than 100 µM in [3]; 40.9 µM in experiment [12]; 38.2 µM in experiment [4]; greater than 100 µM in experiment [5]. Besides, the TGI in experiment [7], in experiment [8], in experiment [9], in [10], in [13] and in [11] was greater than 100 µM throughout. Moreover, the TGI in [14] and in experiment [15] was greater than 100 µM in each case.
Take `CC1(C)CN=C(Nc2ccc(F)c(Cl)c2)S1`: the TGI in experiment [1], in [2], in experiment [3], in [12], in [4] and in experiment [5] was greater than 100 µM in each case. The TGI in experiment [6], in [7], in experiment [8], in experiment [9], in experiment [13] and in [11] was greater than 100 µM throughout. Moreover, the TGI in [14] and in [15] was greater than 100 µM each time.
As for `C/C(=N\Nc1nc2ccccc2o1)c1cc2ccccc2cn1`, the TGI in [1] is greater than 33.7 µM; in [2], greater than 46.3 µM; in [4], 35.3 µM; in experiment [5], 11.1 µM; in [6] it was 12 µM; in experiment [7], 8.25 µM. The TGI is 1.25 µM in experiment [8]; 3.7 µM in experiment [9]; greater than 100 µM in experiment [10]; greater than 20.7 µM in experiment [13]; greater than 20.3 µM in [11]; greater than 38.5 µM in experiment [14].
For the molecule `C(/C=C/Nc1ccc(-c2ccccc2)cc1)=Nc1ccc(-c2ccccc2)cc1`, the TGI in experiment [1], in experiment [2], in experiment [3], in experiment [12], in experiment [4] and in [5] was greater than 100 µM each time. In addition, the TGI in experiment [6], in experiment [7], in experiment [8], in experiment [9], in experiment [13] and in experiment [11] was greater than 100 µM throughout. In addition, the TGI in experiment [14] and in experiment [15] was greater than 100 µM throughout.
In the case of `Cc1cc(=O)n2nc(CSc3n[nH]c(=S)s3)sc2n1`, the TGI in [1], in experiment [2], in experiment [3], in [12], in [4] and in experiment [5] was greater than 100 µM each time. The TGI in [6], in [7], in experiment [8], in experiment [9], in experiment [13] and in [11] was greater than 100 µM in each case. In addition, the TGI in [14] and in [15] was greater than 100 µM throughout.
Regarding `CS(=O)(=O)CCC(N)P(=O)(O)O` (stereo unspecified), the TGI in experiment [1], in experiment [2], in experiment [3], in [12], in experiment [4] and in experiment [5] was greater than 100 µM each time. The TGI in [6], in [7], in experiment [8], in experiment [9], in experiment [13] and in experiment [11] was greater than 100 µM in each case. Moreover, the TGI in experiment [14] and in [15] was greater than 100 µM each time.
For `C[C@]12CC/C(=N\O)C=C1CC[C@@H]1[C@@H]2CC[C@]2(C)C(=N/O)/C(=C/c3ccncc3)C[C@@H]12`, the TGI in experiment [1] was 67.9 µM; in experiment [2], greater than 100 µM; in experiment [3], greater than 100 µM; in experiment [12], 34 µM; in experiment [4], greater than 100 µM; in experiment [5], greater than 100 µM. Further, the TGI in experiment [6] is 62.6 µM; in [7], greater than 100 µM; in experiment [8] it was greater than 100 µM; in experiment [9] it was greater than 100 µM; in experiment [13], 42.7 µM; in experiment [11] it was greater than 100 µM. In experiment [15], this molecule had a TGI of 5.09 µM.
Consider `C=CCN(c1cc(OC)c2c(c1[N+](=O)[O-])C(C)(SC)C(=O)N2)S(C)(=O)=O` (stereo unspecified), for which the TGI in experiment [1], in experiment [3], in experiment [4], in experiment [5], in [6] and in [7] was greater than 100 µM throughout. Moreover, the TGI in experiment [9], in [10], in experiment [13] and in [11] was greater than 100 µM in each case.
Turning to `O=C1CN(c2ccccc2)C(=O)CN1CCN1CC(=O)N(c2ccccc2)CC1=O`, the TGI in experiment [1], in [12], in experiment [4], in experiment [5], in [6] and in experiment [7] was greater than 100 µM each time. For the same molecule, the TGI in experiment [8], in [9], in experiment [10], in [13], in [11] and in experiment [15] was greater than 100 µM throughout.
